Measured values reported in the CheMixHub viscosity set.

Experiment: xn = mol fraction of the nth substance listed

C1CCCC1 + C1CCCCC1
303.15 K, 101 kPa
Details	viscosity [mPa·s]
x1 = 0.1022	0.7604
x1 = 0.2029	0.6988
x1 = 0.2998	0.6457
x1 = 0.3944	0.599
x1 = 0.4949	0.5545
x1 = 0.5917	0.5159
x1 = 0.6949	0.4788
x1 = 0.7843	0.4494
x1 = 0.8966	0.4147

COC(=O)CCCCC(=O)OC + C1CCOC1
viscosity [mPa·s], 101 kPa
Details	293.15 K	298.15 K	303.15 K	308.15 K	313.15 K	318.15 K	323.15 K
x1 = 0.1	0.6562	0.6229	0.5909	0.5598	0.5294	0.4989	0.4706
x1 = 0.2	0.8354	0.7852	0.7403	0.6982	0.6588	0.6205	0.5877
x1 = 0.3	1.042	0.9731	0.9111	0.8539	0.8024	0.7543	0.7132
x1 = 0.3994	1.277	1.183	1.1	1.026	0.958	0.906	0.8459
x1 = 0.5001	1.545	1.42	1.311	1.217	1.134	1.063	0.9929
x1 = 0.5909	1.811	1.652	1.517	1.4	1.299	1.206	1.132
x1 = 0.5999	1.838	1.676	1.541	1.421	1.315	1.221	1.146
x1 = 0.7003	2.163	1.956	1.78	1.63	1.506	1.382	1.302
x1 = 0.7999	2.514	2.255	2.042	1.858	1.7	1.556	1.458
x1 = 0.8937	2.866	2.555	2.298	2.08	1.892	1.731	1.609
x1 = 0.8996	2.888	2.574	2.314	2.095	1.905	1.742	1.619

NCCO + C1COCCO1
101 kPa
Details	viscosity [mPa·s]
298.15 K, x2 = 0.0597	16.05
318.15 K, x2 = 0.5716	2.255

OCc1ccccc1 + C1COCCO1
viscosity [mPa·s], 101 kPa
Details	x1 = 0.201	x1 = 0.2986	x1 = 0.4001	x1 = 0.4991	x1 = 0.7017	x1 = 0.9009
303.15 K	1.398	1.609	1.842	2.149	2.975	4.03
308.15 K	1.288	1.456	1.679	1.92	2.615	3.54
313.15 K	1.178	1.385	1.553	1.797	2.387	3.199

C1CCCC1 + C1COCO1
viscosity [mPa·s], 101.3 kPa
Details	x1 = 0.0988	x1 = 0.1997	x1 = 0.3005	x1 = 0.3997	x1 = 0.4992	x1 = 0.5979	x1 = 0.7027	x1 = 0.7987	x1 = 0.8995
298.15 K	0.5513	0.5176	0.4908	0.4685	0.4495	0.434	0.4216	0.4149	0.4124
313.15 K	0.4666	0.438	0.415	0.3968	0.3804	0.3679	0.3581	0.352	0.351

CCC(C)CC(C)C (stereo not given) + C1C[C@@H]2[C@H]3CC[C@H](C3)[C@@H]2C1
viscosity [mPa·s], 100 kPa
Details	x2 = 0.1017	x2 = 0.2008	x2 = 0.3005	x2 = 0.4002	x2 = 0.5006	x2 = 0.6001	x2 = 0.7001	x2 = 0.8012	x2 = 0.8999
293.15 K	0.538	0.616	0.717	0.847	1.007	1.216	1.478	1.84	2.322
298.15 K	0.511	0.582	0.674	0.792	0.937	1.126	1.361	1.685	2.114
303.15 K	0.487	0.552	0.636	0.744	0.876	1.048	1.261	1.552	1.937
308.15 K	0.465	0.524	0.602	0.7	0.822	0.979	1.171	1.435	1.781
313.15 K	0.445	0.5	0.571	0.662	0.772	0.916	1.092	1.331	1.645

CCC(=O)CC + CC(=O)CC(C)C
298.15 K, 101 kPa
Details	viscosity [mPa·s]
x2 = 0.0749	0.581
x2 = 0.1609	0.575
x2 = 0.3004	0.571
x2 = 0.4466	0.566
x2 = 0.5932	0.562
x2 = 0.7509	0.558
x2 = 0.8066	0.553
x2 = 0.8789	0.548

C1CCCC1 + CC(C)=O
viscosity [mPa·s], 101.33 kPa
Details	293.15 K	298.15 K	303.15 K
x1 = 0.0453	0.318	0.308	0.29
x1 = 0.0935	0.319	0.304	0.291
x1 = 0.1869	0.319	0.304	0.289
x1 = 0.2786	0.324	0.309	0.294
x1 = 0.3922	0.333	0.318	0.303
x1 = 0.517	0.344	0.327	0.311
x1 = 0.6026	0.357	0.338	0.321
x1 = 0.6876	0.367	0.347	0.332
x1 = 0.795	0.385	0.365	0.347
x1 = 0.9016	0.408	0.39	0.37
x1 = 0.9511	0.419	0.397	0.377

Nc1ccccc1[N+](=O)[O-] + CC(C)=O
viscosity [mPa·s], 101 kPa
Details	298.15 K	303.15 K	308.15 K	313.15 K
x1 = 0.3297	1.229	1.142	1.059	0.9826
x1 = 0.5407	2.366	2.175	1.994	1.817

OCc1ccccc1 + CC(C)=O
viscosity [mPa·s], 101 kPa
Details	x1 = 0.2007	x1 = 0.2986	x1 = 0.4007	x1 = 0.5002	x1 = 0.7013	x1 = 0.9003
303.15 K	0.506	0.651	0.894	1.204	2.122	3.544
308.15 K	0.495	0.632	0.861	1.11	1.857	3.118
313.15 K	0.479	0.603	0.807	1.054	1.74	2.826

C1CCCC1 + CC(C)CCO
viscosity [mPa·s], 101 kPa
Details	298.15 K	308.15 K
x1 = 0.0443	3.482	2.238
x1 = 0.0808	3.173	2.06
x1 = 0.1182	2.966	1.962
x1 = 0.2087	2.37	1.573
x1 = 0.3063	1.857	1.278
x1 = 0.3959	1.511	1.09
x1 = 0.521	1.086	0.7741
x1 = 0.616	0.8169	0.6771
x1 = 0.7042	0.6669	0.5329
x1 = 0.8044	0.5675	0.4453
x1 = 0.8984	0.4649	0.3966
x1 = 0.9358	0.4361	0.3784
x2 = 0.0075	0.4035	0.353

C1CCCC1 + CC(C)CO
viscosity [mPa·s], 101 kPa
Details	298.15 K	308.15 K
x1 = 0.0603	2.848	1.934
x1 = 0.1025	2.58	1.68
x1 = 0.1812	2.236	1.478
x1 = 0.2538	1.84	1.237
x1 = 0.3617	1.355	0.9824
x1 = 0.4947	0.9586	0.7014
x1 = 0.5816	0.8054	0.6185
x1 = 0.6617	0.6549	0.5283
x1 = 0.7863	0.5622	0.4429
x1 = 0.8809	0.4552	0.3863
x1 = 0.9205	0.4381	0.3695
x1 = 0.9474	0.4233	0.3609

C1CCCC1 + CC(C)O
101 kPa
Details	viscosity [mPa·s]
298.15 K, x1 = 0.0779	1.686
298.15 K, x1 = 0.1506	1.405
298.15 K, x1 = 0.1861	1.302
298.15 K, x1 = 0.2303	1.179
298.15 K, x1 = 0.26	1.129
298.15 K, x1 = 0.3112	1.009
298.15 K, x1 = 0.3879	0.8567
298.15 K, x1 = 0.4568	0.7573
298.15 K, x1 = 0.5489	0.6423
298.15 K, x1 = 0.6378	0.5548
298.15 K, x1 = 0.7196	0.5314
298.15 K, x1 = 0.8237	0.455
298.15 K, x1 = 0.9124	0.4265
308.15 K, x1 = 0.0365	1.373
308.15 K, x1 = 0.081	1.28
308.15 K, x1 = 0.1332	1.125
308.15 K, x1 = 0.1521	1.101
308.15 K, x1 = 0.1757	1.034
308.15 K, x1 = 0.1856	1.015
308.15 K, x1 = 0.2382	0.9575
308.15 K, x1 = 0.2694	0.9099
308.15 K, x1 = 0.3483	0.7902
308.15 K, x1 = 0.3863	0.7261
308.15 K, x1 = 0.4288	0.6806
308.15 K, x1 = 0.478	0.6312
308.15 K, x1 = 0.5296	0.5689
308.15 K, x1 = 0.5891	0.5186
308.15 K, x1 = 0.6269	0.4877
308.15 K, x1 = 0.6889	0.4468
308.15 K, x1 = 0.7	0.4437
308.15 K, x1 = 0.7248	0.4309
308.15 K, x1 = 0.7619	0.4179
308.15 K, x1 = 0.98	0.3745
308.15 K, x2 = 0.0108	0.3641

CN1CCCC1=O + CC(C)O
298.15 K, 101 kPa
Details	viscosity [mPa·s]
x1 = 0.0609	1.8
x1 = 0.1034	1.703
x1 = 0.1399	1.641
x1 = 0.1993	1.57
x1 = 0.2332	1.539
x1 = 0.3074	1.5
x1 = 0.3626	1.454
x1 = 0.4127	1.45
x1 = 0.4612	1.481
x1 = 0.5022	1.488
x1 = 0.5599	1.497
x1 = 0.6107	1.511
x1 = 0.6683	1.53
x1 = 0.7081	1.543
x1 = 0.7567	1.561
x1 = 0.794	1.579
x1 = 0.8562	1.608
x1 = 0.9199	1.633

NCCO + CC(C)O
viscosity [mPa·s], 100 kPa
Details	x1 = 0.1	x1 = 0.2	x1 = 0.3	x1 = 0.4	x1 = 0.5	x1 = 0.6	x1 = 0.7	x1 = 0.8	x1 = 0.9
303.15 K	2.11	2.53	3.08	3.86	4.9	6.12	7.7	9.55	11.9
313.15 K	1.63	1.92	2.31	2.88	3.55	4.35	5.37	6.54	7.97
323.15 K	1.27	1.49	1.78	2.21	2.65	3.22	3.89	4.69	5.64

OCc1ccccc1 + CC(C)O
viscosity [mPa·s], 101 kPa
Details	x1 = 0.076	x1 = 0.1562	x1 = 0.2409	x1 = 0.3305	x1 = 0.4254	x1 = 0.5262	x1 = 0.6334	x1 = 0.7476	x1 = 0.8695
298.15 K	2.033	2.167	2.366	2.607	2.88	3.203	3.57	3.975	4.423
303.15 K	1.776	1.896	2.06	2.258	2.486	2.756	3.06	3.4	3.785
308.15 K	1.532	1.649	1.796	1.975	2.172	2.406	2.675	2.975	3.304
313.15 K	1.338	1.432	1.556	1.701	1.87	2.07	2.303	2.557	2.828

C1CCCC1 + CCC(C)(C)O
viscosity [mPa·s], 101 kPa
Details	298.15 K	308.15 K
x1 = 0.0429	2.979	1.779
x1 = 0.067	2.668	1.62
x1 = 0.1245	2.256	1.413
x1 = 0.2079	1.793	1.151
x1 = 0.3116	1.297	0.9115
x1 = 0.3957	1.073	0.7831
x1 = 0.5173	0.8412	0.6798
x1 = 0.5982	0.7558	0.5719
x1 = 0.683	0.6454	0.5099
x1 = 0.8095	0.508	0.4267
x1 = 0.8844	0.4827	0.4072
x1 = 0.9127	0.4379	0.3726
x1 = 0.944	0.4169	0.3547

C1CCCC1 + CCC(C)=O
viscosity [mPa·s], 101.33 kPa
Details	293.15 K	298.15 K	303.15 K
x1 = 0.0472	0.397	0.377	0.358
x1 = 0.0981	0.395	0.375	0.358
x1 = 0.1929	0.394	0.372	0.354
x1 = 0.2932	0.39	0.37	0.353
x1 = 0.3753	0.39	0.37	0.352
x1 = 0.4966	0.393	0.373	0.354
x1 = 0.6189	0.394	0.374	0.355
x1 = 0.6838	0.398	0.377	0.359
x1 = 0.8034	0.407	0.387	0.367
x1 = 0.9061	0.419	0.397	0.377
x1 = 0.9499	0.426	0.405	0.383
